Data on three molecules can be found in ChEMBL document CHEMBL3352435, “Multiple fragment docking and linking in primary and secondary pockets of dopamine receptors” (ACS Med Chem Lett, 2014).

The species named for one experiment is Homo sapiens. Description: Selectivity index, ratio of Ki for human D2long receptor to Ki for human D3 receptor.
The target of another experiment is D(3) dopamine receptor (Homo sapiens, UniProt P35462). The experiment in a line: Displacement of [3H]-raclopride from human D3 receptor expressed in CHO-K1 cells after 120 mins by scintillation counting analysis. The class given is cell-based. A general note: In a radioligand displacement assay an active substance lowers the binding of a labelled ligand.
D(3) dopamine receptor, sequence (P35462 whole entry): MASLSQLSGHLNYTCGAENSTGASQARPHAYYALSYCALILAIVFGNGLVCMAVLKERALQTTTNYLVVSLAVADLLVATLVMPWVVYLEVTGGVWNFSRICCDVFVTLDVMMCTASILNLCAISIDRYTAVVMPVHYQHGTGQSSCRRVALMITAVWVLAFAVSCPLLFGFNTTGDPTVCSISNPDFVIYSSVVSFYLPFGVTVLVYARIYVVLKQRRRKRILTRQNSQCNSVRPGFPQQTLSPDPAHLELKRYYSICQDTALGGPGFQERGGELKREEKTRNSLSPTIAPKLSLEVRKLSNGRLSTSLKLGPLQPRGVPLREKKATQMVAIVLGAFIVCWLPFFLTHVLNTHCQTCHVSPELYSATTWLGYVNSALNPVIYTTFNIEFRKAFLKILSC
The next experiment addresses D(2) dopamine receptor (Homo sapiens, UniProt P14416). Description: Displacement of [3H]-raclopride from human D2long receptor expressed in HEK293Galpha15 cells after 120 mins by scintillation counting analysis. Format: cell-based.

D(2) dopamine receptor, sequence (P14416 whole entry): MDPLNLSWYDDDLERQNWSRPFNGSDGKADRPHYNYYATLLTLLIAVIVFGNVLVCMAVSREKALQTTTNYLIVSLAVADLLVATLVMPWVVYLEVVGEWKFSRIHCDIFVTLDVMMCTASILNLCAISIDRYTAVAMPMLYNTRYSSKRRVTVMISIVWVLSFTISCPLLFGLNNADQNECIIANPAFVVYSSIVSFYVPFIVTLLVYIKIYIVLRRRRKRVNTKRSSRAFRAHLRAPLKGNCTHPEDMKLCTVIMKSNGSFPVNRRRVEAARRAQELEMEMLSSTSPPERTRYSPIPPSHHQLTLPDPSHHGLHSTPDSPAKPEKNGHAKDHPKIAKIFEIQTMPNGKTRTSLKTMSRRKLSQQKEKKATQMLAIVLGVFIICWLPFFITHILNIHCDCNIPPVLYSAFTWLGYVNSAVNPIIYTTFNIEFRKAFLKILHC

Usually Ki stands for the equilibrium dissociation constant of an inhibitor or competing ligand from its target. A lower Ki goes with a stronger hold on the target. For the molecule `N#Cc1cc(N2CCN(CC[C@H]3CC[C@H](NC(N)=O)CC3)CC2)cc(C(F)(F)F)c1`, the Ratio Ki in the experiment filed under Homo sapiens came to 39. Also, the figures for the Ki on D(3) dopamine receptor and at D(2) dopamine receptor were 0.75 nM and 30 nM, respectively.
The matching figures for `N#Cc1cc(N2CCN(CC[C@H]3CC[C@H](NS(N)(=O)=O)CC3)CC2)cc(C(F)(F)F)c1`: 55, 0.67 nM and 37 nM.
In the same order, the values of `N#Cc1cc(N2CCN(CC[C@H]3CC[C@H](NC(=O)CN)CC3)CC2)cc(C(F)(F)F)c1` are 9, 0.62 nM and 5.4 nM.
